Legend:
[1] = tested on: high fat+fructose (HF/HS) diet hamsters; assay: 18-day oral dosing lipid study in HF/HS hamsters; type: in vivo, male Golden Syrian hamsters; conditions: niacin 1200 mg/kg oral once daily 18 days, mean ± SD
Protocol: We examined the effects of diet modulation on the lipid profile of male Syrian Golden hamsters. Hamsters were ordered from Charles River Labs (Wilmington, Mass.), and requested to be 111-120 g in weight (correspondingly 56-61 days old). Hamsters were kept in cages of 4-5 per cage, and maintained on a standard light cycle of 12 hours on/12 hours off. All diets were obtained from Dyets, Inc. (Bethlehem, Pa.). “Normal Diet” was a standard rodent chow, catalog #5001, produced into pellets. Water and this standard chow diet were available to this group of hamsters ad libitum. Food was added to cages as needed, but no less frequently than twice per week. “High Fat Diet” was the same standard rodent chow supplemented with the following: 11.5% corn oil, 11.5% coconut oil, 0.5% cholesterol, and 0.25% deoxycholate. This is also available directly from Dyets, Inc., as catalog #611201. Both diets were ordered in 10 kg batches and stored at 4° C. for durations of the experiments (4-8 weeks), and at −20° C. for longer storage (up to six months). Water and this high fat diet were available to this group of hamsters ad libitum. The “High Fat+Fructose” group was fed the same fat-supplemented chow as the “high fat diet” group (#611201), but water was supplemented with fructose to a final concentration of 10%. Fructose was supplied from Now Foods (catalog #6931) and distributed by Lucky Vitamin (catalog #WB48432). Fructose water was prepared by adding 400 g of fructose to 4 L of water and stirring at room temperature until dissolved. Fructose water was stored at 4° C. until use. When provided to hamsters, fructose water was kept in a water bottle in the hamster cages at room temperature, exactly as standard water was. Fructose water and high fat chow were provided to this group of hamsters ad libitum. All animals remained on their respective diets for 21 days.
To begin this experiment, hamsters were randomly assigned to groups defined by the diet modifications above. After a fixed time, blood was collected from hamsters (N=3-4) to determine the lipid contents of the plasma. Because of limitations in the ability to adequately collect blood from hamsters, all blood samples were obtained via a terminal cardiac puncture preceded by asphyxiation with carbon dioxide. Blood (approximately 2 mL volume) was collected with a 22 G needle into a 5 mL syringe and transferred to a K2EDTA tube. The samples were kept on ice until centrifugation (14,000 rpm for 10 minutes at 4° C.) to separate plasma. Plasma was then aliquoted to tubes for storage at −80° C. until analysis.
Lipid parameters were determined using commercially available kits from Wako USA (Richmond, Va.) according to manufacturer's directions.
Male Golden Syrian hamsters were purchased from Charles River Labs (111-120 g, 56-61 days) and acclimated to a high fat+fructose (herein, referred to as “HF/HS”) diet as described above for two weeks. Hamsters were assigned into cohorts by body weight after two weeks' acclimation to the diet. […] Hamsters were dosed once per day for a total of 18 days. All animals remained on the above-described HF/HS diet throughout the dosing period. Dosing solutions for each cohort were prepared for 7 days at a time, although enough was prepared to last for 8 days. Each solution was stored at room temperature between administrations. Cohorts were defined according to Table 2 below.

[2] = Single oral dose pharmacokinetic comparison niacin, ARI-001, 2230C in wild type mice; type: in vivo, C57BL/6 mice; conditions: single bolus oral gavage, mouse plasma; for AUC / Cmax / Tmax / half-life: C57BL/6; for half-life: read-out: half-life (t1/2) (converted)
Description: Compound 2230C has the structure

[3] = Human clinical trial, single oral doses: serum concentration; type: in vivo; conditions: in vivo, 1500 mg, read-out: Cmax
Protocol: Five periods of single dose escalation, with 8 subjects per cohort (6 drug: 2 placebo) involve a total 40 subjects. Appropriately blinded matching placebos are provided. Cohort 1 receives 500 mg of ARI-001 formulated as a single oral tablet, plus eleven placebo tablets; Cohort 2, […] of ARI-001, plus ten placebo tablets; Cohort 3, […] of ARI-001, plus eight placebo tablets; Cohort 4, […] of ARI-001, plus four placebo tablets; Corhort 5, […] of ARI-001. Placebo-only subjects take twelve placebo tablets. Each tablet is a compressed, film-coated tablet suitable for oral administration.
Pharmacokinetic samples are collected at 0-45 min pre-dose and at 0.5, 1, 1.5, 2, 4, 6, 8, 12, 24, 30 and 168 hours after dosing. […]
[…] […] Analysis of all samples is performed at a central laboratory.

Row | Cmax/AUC0-24 [2] [h⁻¹] | SMILES | HDL/TC [1] | FFA (free fatty acids) ([1]; plasma) [mEq/L] | HDL ([1]; plasma) [mg/dL] | LDL ([1]; plasma) [mg/dL] | TG (triglycerides) ([1]; plasma) [mg/dL] | AUC [2] [µM·h] | Cmax [2] [µM] | Tmax [2] [h] | half-life [2] [h] | AUC (% Niacin) [2] [% Niacin] | C24 h/Cmax [2] [%] | Cmax (% Niacin) [2] [% Niacin] | Cmax [3] [ng/mL]
1 |  | O=C(O)c1cccnc1 [Niacin, nicotinic acid] | 0.17 ± 0.11 | 1.82 ± 0.69 | 79 ± 26 | 170 ± 52 | 1555 ± 808 | 11700 | 4090 | 0.5 | 1.75 | 100 | 0.02 | 100 | ~30000
2 | 0.18 | O=C(O)c1ccc(CCN2CCCC2)nc1 [Compound 2230C] |  |  |  |  |  | 686 | 126 | 0.31 | 3.47 | 5.8 | 2.1 | 3.0 | 

Reference: patent US8937063B2 (Trustees of Tufts College, priority 2010, dated 2015)
